These compounds were tested against PAK4 (Homo sapiens, UniProt O96013) (assay: In vitro PAK inhibition assay (Z'-LYTE, SelectScreen), PAK4). Conditions: not given.
Format: biochemical
Procedure: (§1) Compounds are screened in 1% DMSO (final) in the well. For 10 point titrations, 3-fold serial dilutions are conducted. All Peptide/Kinase Mixtures are diluted to a 2× working concentration in the appropriate Kinase Buffer
The 2×PAK-4/Ser/Thr 20 mixture is prepared in 50 mM HEPES pH 7.5, 0.01% BRIJ-35, 10 mM MgCl2, 1 mM EGTA. The final 10 μL Kinase Reaction consists of 0.1-0.75 ng PAK-4 and 2 μM Ser/Thr 20 in 50 mM HEPES pH 7.5, 0.01% BRIJ-35, 10 mM MgCl2, 1 mM EGTA. After the 1 hour Kinase Reaction incubation, 5 μL of a 1:256 dilution of Development Reagent A is added.
(§2) 1. Add the following solutions to a well in a 384-well plate: • 2.5 μL of 4× Test Compound OR (100 nL 100× Test Compound plus 2.4 μL kinase buffer) • 5 μL of 2× Peptide/Kinase (PAK) Mixture • 2.5 μL of 4×ATP Solution
(§3) 3. Incubate the PAK Kinase Reaction at room temperature for 60-minutes
(§4) 4. Add 5 μL of Development Reagent Solution to each well
(§5) 6. Incubate the Development Reaction for 60-minutes
(§6) 7. Determine the fluorescence using a fluorescence plate reader
SelectScreen® Kinase Profiling Service uses XLfit from IDBS. The dose response curve is curve fit to model number 205 (sigmoidal dose-response model).
The table below provides specifications and data around each kinase. The representative IC50 value with a known inhibitor for each kinase was determined at the ATP bin nearest to the ATP Km app.

PAK4, sequence (O96013 whole entry): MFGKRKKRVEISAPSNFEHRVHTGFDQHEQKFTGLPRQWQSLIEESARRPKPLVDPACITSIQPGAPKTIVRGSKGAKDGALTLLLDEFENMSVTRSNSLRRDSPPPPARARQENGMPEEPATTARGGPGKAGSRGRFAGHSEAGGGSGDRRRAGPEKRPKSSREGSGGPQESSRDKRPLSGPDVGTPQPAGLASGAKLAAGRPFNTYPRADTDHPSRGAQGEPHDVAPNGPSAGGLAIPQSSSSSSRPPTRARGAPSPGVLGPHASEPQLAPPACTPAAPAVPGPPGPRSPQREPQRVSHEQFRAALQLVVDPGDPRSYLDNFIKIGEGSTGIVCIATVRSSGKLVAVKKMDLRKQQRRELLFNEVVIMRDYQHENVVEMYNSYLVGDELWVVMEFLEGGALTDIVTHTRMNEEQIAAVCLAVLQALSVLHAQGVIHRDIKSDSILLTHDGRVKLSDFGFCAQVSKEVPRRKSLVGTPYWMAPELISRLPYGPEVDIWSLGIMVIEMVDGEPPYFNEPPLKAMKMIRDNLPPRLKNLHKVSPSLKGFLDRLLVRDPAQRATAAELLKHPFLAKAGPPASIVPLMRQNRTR

Row | Structure (SMILES) | IC50
1 | CCn1c(=O)c(-c2ccc(-c3nccnc3C)cc2Cl)cc2cnc(NC3CCOC(C)(C)C3)nc21 (racemic) [Example 30] | > 5000 nM
2 | CCn1c(=O)c(-c2ccc(-c3noc(C)n3)cc2Cl)cc2cnc(NCCC3CCN(C)CC3)nc21 [Example 93] | > 5000 nM
3 | CCn1c(=O)c(-c2ccc(-c3ccnnc3)cc2Cl)cc2cnc(N[C@@H]3CCOC3)nc21 [Example 62] | > 5000 nM
4 | CCn1c(=O)c(-c2ccc(-c3nccnc3C)cc2Cl)cc2cnc(NC3CCCN(C)C3)nc21 (stereo not shown) [Example 81] | > 5000 nM
5 | CCn1c(=O)c(-c2ccc(-c3cncc(C)c3)cc2Cl)cc2cnc(N[C@@H]3CCOC3)nc21 [Example 61] | > 5000 nM
6 | CCn1c(=O)c(-c2ccc(-c3nccnc3C)cc2Cl)cc2cnc(NC3CCCOC3)nc21 (stereo not shown) [Example 17] | > 5000 nM
7 | CCn1c(=O)c(-c2ccc(-c3ccn(C)n3)cc2Cl)cc2cnc(N[C@@H]3CCOC3)nc21 [Example 63] | > 5000 nM
8 | CCn1c(=O)c(-c2ccc(-c3cncc(C)n3)cc2Cl)cc2cnc(NC3CCOC3)nc21 (stereo not shown) [Example 29] | > 5000 nM
9 | CCn1c(=O)c(-c2ccc(-c3cccnc3C)cc2Cl)cc2cnc(NC3CCOCC3)nc21 [Example 45] | > 5000 nM
10 | CCn1c(=O)c(-c2ccc(-c3ccc(C)nc3)cc2Cl)cc2cnc(N[C@@H]3CCOC3)nc21 [Example 56] | > 5000 nM

What follows are compounds tested against PAK3 (Homo sapiens, UniProt O75914) (assay: In vitro PAK inhibition assay (Z'-LYTE, SelectScreen), PAK3). Conditions: read-out: PAK3 IC50.
PAK3, sequence (O75914 1-544 isoform O75914-2): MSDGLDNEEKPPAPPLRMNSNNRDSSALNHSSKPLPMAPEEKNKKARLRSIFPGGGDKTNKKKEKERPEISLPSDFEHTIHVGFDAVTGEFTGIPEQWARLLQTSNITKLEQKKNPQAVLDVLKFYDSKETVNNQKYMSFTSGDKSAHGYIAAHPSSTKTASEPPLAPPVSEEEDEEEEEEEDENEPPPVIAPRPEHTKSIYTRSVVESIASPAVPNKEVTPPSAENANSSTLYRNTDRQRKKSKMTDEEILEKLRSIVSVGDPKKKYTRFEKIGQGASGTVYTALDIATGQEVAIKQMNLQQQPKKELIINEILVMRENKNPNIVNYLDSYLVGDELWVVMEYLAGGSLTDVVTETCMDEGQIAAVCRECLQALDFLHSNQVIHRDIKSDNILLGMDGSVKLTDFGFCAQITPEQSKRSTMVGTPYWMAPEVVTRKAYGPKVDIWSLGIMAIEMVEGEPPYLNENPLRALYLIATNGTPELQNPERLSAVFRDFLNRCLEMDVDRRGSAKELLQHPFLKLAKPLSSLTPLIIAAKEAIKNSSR
Format: biochemical
Procedure: as §1
The 2×PAK3/Ser/Thr 20 mixture is prepared in 50 mM HEPES pH 7.5, 0.01% BRIJ-35, 10 mM MgCl2, 1 mM EGTA.
as §2, §3, §4, §5, §6
(§7) SelectScreen® Kinase Profiling Service uses XLfit from IDBS.
(§8) The representative IC50 value with a known inhibitor for each kinase was determined at the ATP bin nearest to the ATP Km app.

Row | Structure (SMILES) | IC50
11 | CCn1c(=O)c(-c2ccc(-c3nccnc3C)cc2Cl)cc2cnc(NC3CCOC(C)(C)C3)nc21 (racemic) [Example 30] | < 50 nM
12 | CCn1c(=O)c(-c2ccc(-c3noc(C)n3)cc2Cl)cc2cnc(NCCC3CCN(C)CC3)nc21 [Example 93] | 50 to 500 nM
13 | CCn1c(=O)c(-c2ccc(-c3ccnnc3)cc2Cl)cc2cnc(N[C@@H]3CCOC3)nc21 [Example 62] | > 5000 nM
14 | CCn1c(=O)c(-c2ccc(-c3nccnc3C)cc2Cl)cc2cnc(NC3CCCN(C)C3)nc21 (stereo not shown) [Example 81] | > 5000 nM
15 | CCn1c(=O)c(-c2ccc(-c3cncc(C)c3)cc2Cl)cc2cnc(N[C@@H]3CCOC3)nc21 [Example 61] | 500 to 5000 nM
16 | CCn1c(=O)c(-c2ccc(-c3nccnc3C)cc2Cl)cc2cnc(NC3CCCOC3)nc21 (stereo not shown) [Example 17] | 50 to 500 nM
17 | CCn1c(=O)c(-c2ccc(-c3ccn(C)n3)cc2Cl)cc2cnc(N[C@@H]3CCOC3)nc21 [Example 63] | 500 to 5000 nM
18 | CCn1c(=O)c(-c2ccc(-c3cncc(C)n3)cc2Cl)cc2cnc(NC3CCOC3)nc21 (stereo not shown) [Example 29] | 50 to 500 nM
19 | CCn1c(=O)c(-c2ccc(-c3cccnc3C)cc2Cl)cc2cnc(NC3CCOCC3)nc21 [Example 45] | 500 to 5000 nM
20 | CCn1c(=O)c(-c2ccc(-c3ccc(C)nc3)cc2Cl)cc2cnc(N[C@@H]3CCOC3)nc21 [Example 56] | > 5000 nM

What follows are compounds tested against PAK1 (Homo sapiens, UniProt Q13153) (assay: In vitro PAK inhibition assay (Z'-LYTE, SelectScreen), PAK1). Conditions: read-out: PAK1 IC50.
PAK1, sequence (Q13153 whole entry): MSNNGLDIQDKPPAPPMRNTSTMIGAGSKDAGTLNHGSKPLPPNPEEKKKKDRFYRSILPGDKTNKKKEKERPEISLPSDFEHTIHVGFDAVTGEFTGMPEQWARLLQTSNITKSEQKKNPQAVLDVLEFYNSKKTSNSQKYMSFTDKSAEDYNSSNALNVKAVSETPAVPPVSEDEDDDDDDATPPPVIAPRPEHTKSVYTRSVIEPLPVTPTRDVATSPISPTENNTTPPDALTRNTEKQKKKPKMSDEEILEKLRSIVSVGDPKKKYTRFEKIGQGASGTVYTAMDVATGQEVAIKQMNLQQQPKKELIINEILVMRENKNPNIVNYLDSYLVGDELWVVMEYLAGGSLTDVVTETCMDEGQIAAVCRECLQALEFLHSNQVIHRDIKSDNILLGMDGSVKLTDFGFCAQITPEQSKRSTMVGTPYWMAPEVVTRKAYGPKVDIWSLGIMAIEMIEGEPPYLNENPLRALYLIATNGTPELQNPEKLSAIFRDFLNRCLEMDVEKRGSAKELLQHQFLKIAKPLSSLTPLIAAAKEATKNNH
Format: biochemical
Procedure: as §1
The 2×PAK1/Ser/Thr 19 mixture is prepared in 50 mM HEPES pH 7.5, 0.01% BRIJ-35, 10 mM MgCl2, 1 mM EGTA.
as §2, §3, §4, §5, §6, §7, §8

Row | Structure (SMILES) | IC50
21 | CCn1c(=O)c(-c2ccc(-c3nccnc3C)cc2Cl)cc2cnc(NC3CCOC(C)(C)C3)nc21 (racemic) [Example 30] | < 50 nM
22 | CCn1c(=O)c(-c2ccc(-c3noc(C)n3)cc2Cl)cc2cnc(NCCC3CCN(C)CC3)nc21 [Example 93] | < 50 nM
23 | CCn1c(=O)c(-c2ccc(-c3ccnnc3)cc2Cl)cc2cnc(N[C@@H]3CCOC3)nc21 [Example 62] | > 5000 nM
24 | CCn1c(=O)c(-c2ccc(-c3nccnc3C)cc2Cl)cc2cnc(NC3CCCN(C)C3)nc21 (stereo not shown) [Example 81] | 50 to 500 nM
25 | CCn1c(=O)c(-c2ccc(-c3cncc(C)c3)cc2Cl)cc2cnc(N[C@@H]3CCOC3)nc21 [Example 61] | 50 to 500 nM
26 | CCn1c(=O)c(-c2ccc(-c3nccnc3C)cc2Cl)cc2cnc(NC3CCCOC3)nc21 (stereo not shown) [Example 17] | 50 to 500 nM
27 | CCn1c(=O)c(-c2ccc(-c3ccn(C)n3)cc2Cl)cc2cnc(N[C@@H]3CCOC3)nc21 [Example 63] | 50 to 500 nM
28 | CCn1c(=O)c(-c2ccc(-c3cncc(C)n3)cc2Cl)cc2cnc(NC3CCOC3)nc21 (stereo not shown) [Example 29] | 50 to 500 nM
29 | CCn1c(=O)c(-c2ccc(-c3cccnc3C)cc2Cl)cc2cnc(NC3CCOCC3)nc21 [Example 45] | 50 to 500 nM
30 | CCn1c(=O)c(-c2ccc(-c3ccc(C)nc3)cc2Cl)cc2cnc(N[C@@H]3CCOC3)nc21 [Example 56] | 500 to 5000 nM

What follows are compounds tested against PAK2 (PAK65) (Homo sapiens, UniProt Q13177) (assay: In vitro PAK inhibition assay (Z'-LYTE, SelectScreen), PAK2). Conditions: read-out: PAK2 IC50.
PAK2 (PAK65), sequence (Q13177 whole entry): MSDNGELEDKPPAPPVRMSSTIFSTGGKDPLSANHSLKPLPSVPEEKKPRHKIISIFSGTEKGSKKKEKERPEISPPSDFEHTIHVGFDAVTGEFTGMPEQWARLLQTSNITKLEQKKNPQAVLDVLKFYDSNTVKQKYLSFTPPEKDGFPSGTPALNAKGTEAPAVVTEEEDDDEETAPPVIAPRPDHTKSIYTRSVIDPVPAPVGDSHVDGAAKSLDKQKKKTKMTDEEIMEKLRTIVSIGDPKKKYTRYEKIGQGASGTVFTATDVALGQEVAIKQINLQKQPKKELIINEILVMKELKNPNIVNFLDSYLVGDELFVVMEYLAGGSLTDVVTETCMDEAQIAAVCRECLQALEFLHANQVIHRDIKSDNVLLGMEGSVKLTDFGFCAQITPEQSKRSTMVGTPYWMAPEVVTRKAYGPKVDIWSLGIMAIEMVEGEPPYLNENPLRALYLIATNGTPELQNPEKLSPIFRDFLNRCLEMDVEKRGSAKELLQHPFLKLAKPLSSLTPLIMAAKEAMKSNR
Format: biochemical
Procedure: as §1
The 2×PAK2 (PAK65)/Ser/Thr 20 mixture is prepared in 50 mM HEPES pH 7.5, 0.01% BRIJ-35, 10 mM MgCl2, 1 mM EGTA. The final 10 μL Kinase Reaction consists of 0.29-6 ng PAK2 (PAK65) and 2 μM Ser/Thr 20 in 50 mM HEPES pH 7.5, 0.01% BRIJ-35, 10 mM MgCl2, 1 mM EGTA.
as §2, §3, §4, §5, §6, §7, §8

Row | Structure (SMILES) | IC50
31 | CCn1c(=O)c(-c2ccc(-c3nccnc3C)cc2Cl)cc2cnc(NC3CCOC(C)(C)C3)nc21 (racemic) [Example 30] | < 50 nM
32 | CCn1c(=O)c(-c2ccc(-c3noc(C)n3)cc2Cl)cc2cnc(NCCC3CCN(C)CC3)nc21 [Example 93] | < 50 nM
33 | CCn1c(=O)c(-c2ccc(-c3ccnnc3)cc2Cl)cc2cnc(N[C@@H]3CCOC3)nc21 [Example 62] | > 5000 nM
34 | CCn1c(=O)c(-c2ccc(-c3nccnc3C)cc2Cl)cc2cnc(NC3CCCN(C)C3)nc21 (stereo not shown) [Example 81] | 50 to 500 nM
35 | CCn1c(=O)c(-c2ccc(-c3cncc(C)c3)cc2Cl)cc2cnc(N[C@@H]3CCOC3)nc21 [Example 61] | 50 to 500 nM
36 | CCn1c(=O)c(-c2ccc(-c3nccnc3C)cc2Cl)cc2cnc(NC3CCCOC3)nc21 (stereo not shown) [Example 17] | 50 to 500 nM
37 | CCn1c(=O)c(-c2ccc(-c3ccn(C)n3)cc2Cl)cc2cnc(N[C@@H]3CCOC3)nc21 [Example 63] | 50 to 500 nM
38 | CCn1c(=O)c(-c2ccc(-c3cncc(C)n3)cc2Cl)cc2cnc(NC3CCOC3)nc21 (stereo not shown) [Example 29] | < 50 nM
39 | CCn1c(=O)c(-c2ccc(-c3cccnc3C)cc2Cl)cc2cnc(NC3CCOCC3)nc21 [Example 45] | 500 to 5000 nM
40 | CCn1c(=O)c(-c2ccc(-c3ccc(C)nc3)cc2Cl)cc2cnc(N[C@@H]3CCOC3)nc21 [Example 56] | 50 to 500 nM
